4 compounds from article PMC3154276, “The Effect of the Potential PhoQ Histidine Kinase Inhibitors on Shigella flexneri Virulence” (PLoS ONE, 2011) can be followed below.

Holding throughout (format): cell-based
The subject of one data set is S. flexneri Sf9380. In words: Gentamicin protection assay, intracellular growth and spreading to adjacent cell of Sf9380. Conditions: for intracellular growth and spreading to adjacent cell of Sf9380 (bacteria recovered / inoculated): further incubated 290 min, untreated Sf9380 0.12. The protocol: The growth curve of Sf9380 treated with or without potential PhoQ inhibitors at concentration 200 µmol/L were tested. […] The gentamicin protection assay was used as a cellular model to evaluate the inhibitory effect of the four potential PhoQ inhibitors. The bacteria were treated with each of the four potential PhoQ inhibitors in a serial dilution and grown for 8 hours. Next, the bacteria were inoculated and incubated with HeLa cells for 60 min prior to the addition of gentamicin to kill extracellular bacteria. For testing intracellular growth and spreading to adjacent cell, cells were further incubated for 290 min [9]. The results of the assays were expressed as the number of bacteria recovered from gentamicin-treated cells divided by the number of inoculated bacteria added to the cell. After lysates of HeLa cells were plated, the number of CFU that formed on LB agar were counted.
Figure 6 The effects of potential PhoQ inhibitors on virulence of Shigella. […] The bacteria pre-treated with potential PhoQ inhibitor were added to HeLa cells at a multiplicity of infection of 100. Then gentamicin was added to kill extracellular bacteria and cell lysates were plated onto LB plates, and the colonies were counted. The results of the assays were expressed as the number of bacteria recovered from gentamicin-treated cells divided by the number of inoculated bacteria added to the cell. S. flexneri Sf9380 (treated without DMSO), a clinical strain with strong virulence, served as the positive control for the cell invasion assay; E. coli ATCC 25922 (treated without DMSO), an avirulent strain, served as the negative control for the cell invasion assay; bacteria treated with 0.1% DMSO (the solvent of the potential PhoQ inhibitor) also served as a control for the cell invasion assay. Values are means ± standard deviations from 6 independent wells. *p<0.01 vs. Sf9380. (A) The effects of potential PhoQ inhibitors on cell invasion of S. flexneri Sf9380 (B) The effects of potential PhoQ inhibitors on intracellular growth S. flexneri Sf9380. (C) The effects of potential PhoQ inhibitors on cell invasion of S. flexneri 2a 301 phoQ/phoP knock-out mutant.
Bacterial ability to invade HeLa cells was tested with a gentamicin protection assay. HeLa cells were grown in six-well tissue culture plates to semi-confluent monolayers (DMEM, 10% FCS, 5% CO2). Sf9380 or Sf301 ΔphoQ/phoP was treated with potential PhoQ inhibitors for 8 hours in LB at 37°C (final concentrations of 100,50,25,12.5 or 6.25 µmol/L) prior to infection. The bacteria pre-treated with potential PhoQ inhibitor without washing, were added to semi-confluent HeLa cells at a multiplicity of infection of 100, at the same time the bacteria were diluted and plated onto LB agar plates. The CFUs were counted as initial bacterial number before added into HeLa cells. Then the plates were centrifuged at 900×g for 5 minutes. After incubating at 37°C for 60 minutes (For testing intracellular growth and spreading to adjacent cell, cells were further incubated for 290 min [9].), the cells were washed three times with PBS, and gentamicin was added to the medium to a final concentration of 10 µg/ml for 20 minutes at 37°C. After the incubation, the HeLa cells in each well were lysed in 1 ml of PBS containing 0.1% Triton X-100 for 10 minutes at room temperature. The lysates were diluted and plated onto LB agar plates in triplicate. Colonies grown on LB plates were counted. The results of the assays were expressed as the number of bacteria recovered from gentamicin-treated cells divided by the number of inoculated bacteria added to the cell. The cells were inoculated with untreated Sf9380 or Sf301 ΔphoQ/phoP (treated without DMSO) as a positive control and E. coli ATCC 25922, an avirulent strain treated without DMSO, as a negative control. […]

The subject of data set [1] is Salmonella enterica Typhimurium SL1344. In words: Salmonella cell invasion assay (gentamicin protection, HeLa cells). Conditions: for cell invasion rate of Salmonella enterica Typhimurium SL1344: HeLa cells, untreated Salmonella 6×10^−2; for effect on cell invasion of Salmonella SL1344 (words, discussion): Figure 7, concentration not restated. The protocol: The effects of potential PhoQ inhibitors on cell invasion of Salmonella were determined by gentamicin protection assay.
Figure 7 The effects of potential PhoQ inhibitors on cell invasion of Salmonella. […] The bacteria pre-treated with potential PhoQ inhibitor were added to HeLa cells at a multiplicity of infection of 100. Then gentamicin was added to kill extracellular bacteria and cell lysates were plated onto LB plates, and the colonies were counted. The results of the assays were expressed as the number of bacteria recovered from gentamicin-treated cells divided by the number of inoculated bacteria added to the cell. Salmonella enterica typhimurium SL1344 served as the positive control for the cell invasion assay; E. coli ATCC 25922 (treated without DMSO), an avirulent strain, served as the negative control for the cell invasion assay; bacteria treated with 0.1% DMSO also served as a control for the cell invasion assay. Values are means ± standard deviations from 6 independent wells. *p<0.01 vs. SL1344.
The gentamicin protection assay was used as a cellular model to evaluate the inhibitory effect of the four potential PhoQ inhibitors. Salmonella enterica typhimurium SL1344 was treated with each of the four potential PhoQ inhibitors (final concentrations: potential PhoQ inhibitor 1 was 12.5 µmol/L, 2 was 25 µmol/L, 3 was 100 µmol/L and 4 was 100 µmol/L) and grown for 8 hours. The bacteria pre-treated with potential PhoQ inhibitor without washing, were added to HeLa cells at a multiplicity of infection of 100, at the same time the bacteria were diluted and plated onto LB agar plates. The CFUs were counted as initial bacterial number before added into HeLa cells. Next, the bacteria were inoculated to HeLa cells and incubated with for 60 minutes prior to the addition of gentamicin to kill extracellular bacteria. After the incubation, the HeLa cells in each well were lysed in 1 ml of PBS containing 0.1% Triton X-100 for 10 minutes at room temperature. The lysates were diluted and plated onto LB agar plates in triplicate. Colonies grown on LB plates were counted. The results of the assays were expressed as the number of bacteria recovered from gentamicin-treated cells divided by the number of inoculated bacteria added to the cell. After lysates of HeLa cells were plated, the number of CFU that formed on LB agar were counted. The cells were inoculated with untreated SL1344 (treated without DMSO) as a positive control and E. coli ATCC 25922, an avirulent strain treated without DMSO, as a negative control. SL1344 was treated with the same amount of 0.1% DMSO as the other groups to control for any DMSO-specific effects. The cell invasion assay was performed in triplicate for each potential PhoQ inhibitor, and the assay was repeated twice.

The nature of data set [2]: Erythrocyte hemolysis assay. Conditions: human erythrocytes (5% suspension), healthy human erythrocytes. The protocol: The hemolytic activity of the potential PhoQ inhibitors was determined using human erythrocytes. The erythrocytes were washed three times with sterile saline and resuspended to 5% cell concentration prior to assay. Then, 200 µl erythrocyte suspensions containing 25 µmol/L or 100 µmol/L concentrations of each potential PhoQ inhibitors were added in triplicate to the wells of the 96-well microtiter plates. Cells without potential PhoQ inhibitors treatment or with 1% Triton-100 treatment were used as the zero or 100% hemolysis control, respectively. The cell suspensions were incubated for 1 hour at 37°C and centrifuged for 10 minutes at 1200×g. Supernatants (100 µl) were transferred to another sterile plate, and the released hemoglobin was measured absorbance readings at 570 nm. […] The hemolysis assay was repeated twice.

Regarding `O=C(Nc1ccc(C2(c3cccc(NC(=O)c4cccc5ccccc45)c3)c3ccccc3C(=O)c3ccccc32)cc1)c1ccc2ccccc2c1` [Compound 1], in the data set on S. flexneri Sf9380 (12.5 µmo/L), the “times lower than untreated Sf9380, intracellular growth” value (“times lower than untreated Sf9380” for short) is listed as 1.96 times; the “intracellular growth and spreading to adjacent cell of Sf9380 (bacteria recovered / inoculated)” value came out at 0.061. Further, in data set [1] (12.5 µmo/L), the “times lower invasion than the control, SL1344” value is reported as 6.74 times and the “cell invasion rate of Salmonella enterica Typhimurium SL1344” value (from here on “cell invasion rate”) was 0.89×10^−2. Besides, in data set [1], the “effect on cell invasion of Salmonella SL1344 (words, discussion)” value (“effect … (words, discussion)” below) was “inhibited”. Further, in data set [2], the hemolysis at 1 h, 25 µmol/L was < 0.1% and the hemolysis at 1 h, 100 µmol/L was < 0.1%.
For `CCOc1ccccc1-c1cc(C(=O)N/N=C/c2ccc(OCc3ccccc3)c(OC)c2)c2ccccc2n1` [Compound 2], in the data set on S. flexneri Sf9380 (25 µmo/L), the “times lower than untreated Sf9380” value was found to be 3.3 times; the “intracellular growth and spreading to adjacent cell of Sf9380 (bacteria recovered / inoculated)” value stood at 0.036. Also, in data set [1] (25 µmo/L), the “times lower invasion than the control, SL1344” value is 3.84 times and the “cell invasion rate” value was 1.564×10^−2. Moreover, the “effect … (words, discussion)” value in data set [1] was “inhibited”. In data set [2], the hemolysis at 1 h, 25 µmol/L was < 0.1% and the hemolysis at 1 h, 100 µmol/L was < 0.1%.
Take `O=C(O)c1ccc(Cl)c(-c2ccc(/C=N/NC(=O)c3ccc(Br)cc3)o2)c1` [Compound 3]: in the data set on S. flexneri Sf9380 (100 µmo/L), the “times lower than untreated Sf9380” value was found to be 2.6 times; the “intracellular growth and spreading to adjacent cell of Sf9380 (bacteria recovered / inoculated)” value was determined as 0.046. For the same compound, in data set [1] (100 µmo/L), the “times lower invasion than the control, SL1344” value was 166 times and the “cell invasion rate” value is 0.036×10^−2. Moreover, in data set [1], the “effect … (words, discussion)” value is recorded as “inhibited”. In addition, in data set [2], the hemolysis at 1 h, 25 µmol/L was < 0.1% and the hemolysis at 1 h, 100 µmol/L was < 0.1%.
For `O=C(O)c1cc(-c2ccc(-c3ccccc3Cl)o2)nc2ccc3ccccc3c12` [Compound 4], in the data set with S. flexneri Sf9380 (100 µmo/L), the “effect on cell intracellular growth of Sf9380” value was “no obvious effect”; the “intracellular growth and spreading to adjacent cell of Sf9380 (bacteria recovered / inoculated)” value was found to be 0.12. In data set [1] (100 µmo/L), the “effect on cell invasion of SL1344” value was “no obvious effect” and the “cell invasion rate” value is reported as 5.7×10^−2. Moreover, the “effect … (words, discussion)” value in data set [1] is on record as “no obvious effect”. Also, in data set [2], the hemolysis at 1 h, 25 µmol/L is < 0.1% and the hemolysis at 1 h, 100 µmol/L is < 0.1%.
